In article PMC7024557, “Synthesis of Novel Structural Hybrids between Aza-Heterocycles and Azelaic Acid Moiety with a Specific Activity on Osteosarcoma Cells” (Molecules, 2020):

How the values were obtained:
[1] = tested on: HT29 (human colon adenocarcinoma); assay: MTT assay, cell viability; format: cell-based; details: HT-29, after 48 h of treatment, n.a. = non active
Text: (§1) Cell lines included in the evaluation of toxicity profiles were malignant U2OS, HT29, PC3, and IGROV1, and a normal human adult fibroblast cell line HDFa.
(§2) The human prostate cancer (PC3), human colon cancer (HT29), human bone osteosarcoma (U2OS), and normal human adult fibroblast (HDFa) cell lines were purchased from American Type Culture Collection (ATCC, Manassas, VA, USA), while the human ovarian cancer cell line (IGROV1) was kindly provided by Istituto Nazionale Tumori (IRCCS, Milano, Italy). Cells were cultured in Roswell Park Memorial Institute (RPMI)-1640 medium (Labtek Eurobio, Milan, Italy), supplemented with 10% fetal calf serum (FCS; Euroclone, Milano, Italy) and 2mM L-glutamine (Sigma-Aldrich, Milano, Italy), at 37 °C and 5% CO2 atmosphere. The compounds were dissolved in dimethyl sulfoxide (DMSO) in a 60 mM stock solution. In cell treatments, the final DMSO concentration never exceeded 0.1%.
(§3) U2OS were seeded at 1.5 × 10^4 cells/well in a 96-well culture plastic plate (Orange Scientific, Braine-l’Alleud, Belgium) and, after 24 h of growth, cells were exposed for additional 48 h to increasing concentrations of compounds (0.1 µM and […]) solubilized in RPMI-1640 medium. On the day of measurement, the culture medium was replaced with 0.1 mL of 3-(4,5-dimethylthiazolyl-2)-2,5-diphenyltetrazolium bromide (MTT, Sigma-Aldrich) dissolved in phosphate-buffered saline (PBS) at the concentration of 0.2 mg/mL, and samples were incubated for 2 h at 37 °C. To dissolve the blue-violet formazan salt crystals formed, 0.1 mL of isopropyl alcohol was added to each well and incubated for 20 min. The absorbance at 570 nm was measured using a multiwell plate reader (Wallac Victor2, PerkinElmer, Milano, Italia), and viability was compared with that of untreated cells, used as controls.

[2] = tested on: U2OS (human osteosarcoma); assay: MTT assay, cell viability; format: cell-based; details: for IC50: Homo sapiens, U2OS, after 48 h of treatment, n.a. = non active; for sensitivity of U2OS to the compound (IC50 analysis): only U2OS among tumor cell lines
Text: as §1, §2, §3

U2OS cell line = tested on: U2OS cell line; parameters: method as in PMID 31646829, PMID 26298721; details: ref [30],[31]; cited from earlier work
U2OS cells [3] = assay: Cell-cycle assay by flow cytometry (PI fluorescence, forward scatter); format: cell-based, human; details: 24 h; for mean channel of FS distribution (nuclear size): U2OS nuclei, 35 μM of 6, 50 μM of 5a or 8a, control cells 730; for effect on cell-cycle progression: U2OS, 35 μM of compound 6, 50 μM of 5a, 50 μM of 8a
Experimental: To infer whether their effects were due to interference with cell-cycle progression, DNA profiles of cultured cells were examined by flow cytometry. […] As clear from Figure 3, the nuclei in all cell-cycle phases were affected.
For the cell-cycle assay, U2OS cells were treated for 24 h with 35 μM of compound 6, 50 μM of 5a, or 50 μM of 8a, detached with 0.11% trypsin (Sigma-Aldrich, S.Louis, MO, USA)/0.02% ethylenediaminetetraacetic acid (EDTA) (Sigma-Aldrich, S.Louis, MO, USA), washed in PBS, and centrifuged. The pellet was resuspended in 0.01% Nonidet P-40 (Sigma-Aldrich, S.Louis, MO, USA), 10 μg/mL RNase (Sigma-Aldrich, S.Louis, MO), 0.1% sodium citrate, and 50 μg/mL propidium iodide (PI) (Sigma-Aldrich, S.Louis, MO, USA), for 30 min at room temperature in the dark. PI fluorescence and forward scatter (FS) signals were analyzed using a Beckman Coulter Epics XL-MCL flow cytometer. DNA distribution in the cell cycle was analyzed by the MODFIT 5.0 software. As the signal collected by a multichannel analyzer, the mean of the FS distribution is expressed as mean channel.

[4] = tested on: acetylated histones H2/H3 and H4 in U2OS cells; assay: Histone acetylation, Western blot with anti-acetyl lysine antibody; format: cell-based, human; details: 6 h, densitometry normalized on histone H1, vs control
Text: To identify acetylated histones, we analyzed the nuclear cell lysates by Western blot using a 15% polyacrylamide gel electrophoresis. After electrophoresis, the proteins were transferred to a nitrocellulose membrane and then immunoblotted with an anti-acetyl lysine monoclonal antibody. […] Differences in the density of bands are thought to reflect differences in protein acetylation levels. Histone acetylation signals were quantified by densitometry and normalized on histone H1. Histones H2/H3 acetylation increased by 28% upon treatment with 6 for 6 h with no effect on H4 acetylation, whereas compound 8a induced hyperacetylation by 30% on histone H4 only.
U2OS were cultured with 5a, 6, or 8a, for 6 h, and the histone fraction was immediately extracted. Cells were harvested using 0.11% trypsin and 0.02% EDTA, washed twice with 10 mM sodium butyrate (NaBu) in PBS, and nuclei were isolated according to Amellem et al.. The nuclear pellet was suspended in 0.1 mL of ice-cold water using a Vortex mixer, and concentrated H2SO4 was added to the suspension to give a final concentration of 0.4 N. After incubation at 4 °C for 1 h, the suspension was centrifuged for 5 min at 14,000× g, and the supernatant was taken and mixed with 1 mL of acetone. After overnight incubation at −20 °C, the coagulate material was collected by microcentrifugation and air-dried, and proteins were quantified using a protein assay kit (Bio-Rad, Hercules, CA, USA). Histones were analyzed as previously described. Briefly, histones were resolved by 15% SDS-PAGE and immunoblotted with anti-acetylated lysine antibody (Cell Signaling Technology, Beverly, MA, USA); the detection of immunoreactive bands was performed with a secondary antibody conjugated with horseradish peroxidase and developed with an enhanced chemiluminescence (ECL) system, developed with the enhanced chemiluminescence system Clarity Western (Bio-Rad, Hercules, CA, USA), and quantification was done by Fluor-S Max MultiImager (Bio-Rad). Histone acetylation signals were quantified by densitometry and normalized on histone H1.

U2OS cells [5] = assay: Hoechst 33,342 nuclear staining, confocal microscopy; format: cell-based, human; details: 24 h
Experimental: These effects induced by the above compounds on histone acetylation are not associated with events involved in apoptotic death.
Nuclear morphology was assayed using a specific dye Hoechst 33,342. U2OS treated cells were washed, fixed, and then stained with 1 µM Hoechst 33,342 (Sigma-Aldrich, St Louis, MO, USA) for 15 min. Samples were embedded in Mowiol and analyzed using a Nikon C1s confocal laser-scanning microscope, equipped with a Nikon PlanApo 40×, 1.4 numerical aperture (NA) oil immersion lens. Images were quantified by ImageJ software (IMAJ 1.x).

[6] = tested on: IGROV1 (human ovarian carcinoma); assay: MTT assay, cell viability; format: cell-based; details: IGROV-1, after 48 h of treatment, n.a. = non active
Text: as §1, §2, §3

[7] = tested on: PC3 (human prostatic carcinoma); assay: MTT assay, cell viability; format: cell-based; details: after 48 h of treatment, n.a. = non active
Text: as §1, §2, §3

[8] = tested on: human osteosarcoma growth; parameters: method as in PMID 24344034, PMID 30697272; details: ref [32],[33]; read-out: IC50, inhibition of human osteosarcoma growth; cited from earlier work

SMILES: COC(=O)CCCCCCCC(=O)Nc1ccccn1 [4a, Methyl 9-oxo-9-(pyridin-2-ylamino)nonanoate]
- melting point: 59 to 60 °C
- IC50 [1]: > 100 µM
- IC50 [2]: > 100 µM

SMILES: COC(=O)CCCCCCCC(=O)Nc1cccnc1 [4b, Methyl 9-oxo-9-(pyridin-3-ylamino)nonanoate]
- melting point: 75.5 to 77.7 °C
- IC50 [1]: > 100 µM
- IC50 [2]: > 100 µM

SMILES: COC(=O)CCCCCCCC(=O)Nc1ccncc1 [4c, Methyl 9-oxo-9-(pyridin-4-ylamino)nonanoate]
- melting point: 83 to 85 °C
- IC50 [2]: > 100 µM

SMILES: O=c1[nH]cc(F)c(=O)[nH]1 [5-fluorouracile]
- IC50 (U2OS cell line): 0.3 µM

SMILES: COC(=O)CCCCCCCC(=O)Nc1ncccn1 [5a, Methyl 9-oxo-9-(pyrimidin-2-ylamino)nonanoate]
- mean channel of FS distribution (nuclear size) (U2OS cells [3]): 735
- effect on cell-cycle progression (U2OS cells [3]): slight accumulation in the synthesis (S) phase
- increase of histone H4 acetylation [4]: 22%
- increase of histones H2/H3 acetylation [4]: 89%
- nuclear morphology by Hoechst 33,342 staining (U2OS cells [5]): dim staining of nuclei
- IC50 [2]: 50 µM
- sensitivity of U2OS to the compound (IC50 analysis) [2]: sensitive

SMILES: COC(=O)CCCCCCCC(=O)Nc1ccncn1 [5b, Methyl 9-oxo-9-(pyrimidin-4-ylamino)nonanoate]
- melting point: 92 to 94.2 °C
- IC50 [2]: > 100 µM
- IC50 [6]: > 100 µM

SMILES: COC(=O)CCCCCCCC(=O)Nc1cncnc1 [5c, Methyl 9-oxo-9-(pyrimidin-5-ylamino)nonanoate]
- melting point: 78.6 to 80.2 °C
- IC50 [1]: > 100 µM
- IC50 [7]: > 100 µM
- IC50 [6]: > 100 µM

SMILES: COC(=O)CCCCCCCC(=O)n1cnc2ccccc21 [8a, Methyl 9-(1H-benzo[d]imidazol-1-yl)-9-oxononanoate]
- mean channel of FS distribution (nuclear size) (U2OS cells [3]): 780
- effect on cell-cycle progression (U2OS cells [3]): slight accumulation in the synthesis (S) phase
- increase of histone H4 acetylation [4]: 30%
- nuclear morphology by Hoechst 33,342 staining (U2OS cells [5]): dim staining of nuclei
- IC50 [1]: > 100 µM
- IC50 [7]: > 100 µM
- IC50 [2]: 50 µM
- sensitivity of U2OS to the compound (IC50 analysis) [2]: sensitive

SMILES: COC(=O)CCCCCCCC(=O)n1nnc2ccccc21 [8b, Methyl 9-(1H-benzo[d][1,2,3]triazol-1-yl)-9-oxononanoate]
- melting point: 55.5 to 57.2 °C
- IC50 [6]: > 100 µM

SMILES: N.N.[Cl][Pt][Cl] [Cisplatin]
- IC50 (U2OS cell line): 1.67 µM

SMILES: COC(=O)CCCCCCCC(=O)N(C(=O)CCCCCCCC(=O)OC)c1ncccn1 [compound 6, Dimethyl 9,9’-(pyrimidin-2-ylazanediyl)bis(9-oxononanoate)]
- mean channel of FS distribution (nuclear size) (U2OS cells [3]): 905
- effect on cell-cycle progression (U2OS cells [3]): increase in the gap 0/gap 1 (G0/G1) fraction, with concomitant decrease in the G2/mitosis (M) phase
- increase of histone H4 acetylation [4]: no effect
- increase of histones H2/H3 acetylation [4]: 28%
- nuclear morphology by Hoechst 33,342 staining (U2OS cells [5]): increase in nuclear size
- IC50 [1]: > 100 µM
- IC50 [2]: 35 µM
- sensitivity of U2OS to the compound (IC50 analysis) [2]: sensitive

SMILES: COc1cccc2c1C(=O)c1c(O)c3c(c(O)c1C2=O)C[C@@](O)(C(=O)CO)C[C@@H]3O[C@H]1C[C@H](N)[C@H](O)[C@H](C)O1 [doxorubicin]
- IC50 (U2OS cell line): 0.5 µM

SMILES: CCCC(=O)[O-].[Na+] [sodium butyrate]
- IC50 [8]: 5 µM

SMILES: CC(/C=C/C(=O)NO)=C\[C@@H](C)C(=O)c1ccc(N(C)C)cc1 [trichostatin A]
- IC50 [8]: 0.5 µM
